According to US20260373294A1, “PHARMACEUTICAL COMPOSITIONS COMPRISING A PSYCHEDELIC DRUG AND A DENDRITIC NANOCARRIER” (priority 2023, published 2026):
Entries after “also recorded” stand apart in the source; their conditions may differ. Read-outs that look alike come from different tables or passages of the source.

How the values were obtained:
5-HT2A receptor = conditions: cited from earlier work
[1] = cited from earlier work
[2] = Exemplary stability experiment, visual grading of psilocin samples with carriers or stabilizers (Example 6); assay type: physicochemical; design: key to stability, visually graded, under Vacuum at 25 °C / stability, visually graded, at room temperature exposed to air / stability, visually graded, at 50 °C, exposed to air: 0: dark precipitate visible = not stable; 1: discolored = moderately stabilized; 2: slightly discolored = stabilized; 3: transparent = highly stabilized
From the text: Psilocin was mixed with two different batches of CMS carrier (DendroSol®), two different batches of dendritic succinate (hPG-succ, one of which had 25% substitution with succinate, the other one 100%) and two different batches of dendritic succinate functionalized with nalbuphine as anchor molecule (liked via an ester), as well as dendritic succinate deprotonized with NaOH. For comparison, we also mixed psilocin with known stabilizers oxalic acid and ascorbic acid (vitamin C), as well as mixtures of vitamin C with the carriers named above. One sample of pure psilocin solution was kept as a reference.
All samples contained 5 mg/L of psilocin and 2.5 wt % of carrier (for carriers mixed with oxalic acid or vitamin C, the total concentration of additives was 2.5 wt %). In the second part of the experiment, the carrier concentration was varied between 0.6 and 3 wt %.

[3] = test system: N-methyl-D-aspartate receptor (NMDAR); conditions: cited from earlier work
[4] = cited from earlier work; remark: listed apart in the source
[5] = Diffusion cell tests with porcine oral mucosa (Franz cells) (Example 8); assay type: in vitro ADME; conditions: 2.5% DendroSol; 0.025 mg/100 μL LSD
Experimental: FIG. 3 Diffusion cell tests with psilocin, LSD and MDMA in Franz cells in the absence and presence of carrier. The tests were carried out with porcine oral mucosa as described in Example 8 below. Each carrier formulation was used on four diffusion cells each. In the graphic, mean values are shown.
Diffusion cell tests were carried out with porcine oral mucosa. Porcine mucosa was freshly prepared and kept in physiological buffer at pH 7.2 at temperatures between 2-8 °C for less than 36 h prior the experiment. The prepared oral mucosa thickness was 0.4-0.65 mm. Concentrations were determined by HPLC-UV. Four diffusion cells with a surface area of 0.54 cm^2 and an acceptor volume of 12.7 mL were used in the experiments for each formulation. Drug-carrier solutions wherein the solvent was water were prepared by either dissolving the drug in ethanol in a glass beaker, letting the ethanol evaporate under high vacuum and then dissolving the drug in the buffered nanocarrier solution. Alternatively, the drug was mixed with the carrier in ethanol in final conditions, the resulting mixture was dried under high vacuum in case of psilocin and afterwards re-dissolved in purified HPLC water.
Each carrier formulation was used on four diffusion cells each. In the graphic, the results were averaged.
Acceptor medium was physiological NaCl solution which was phosphate-buffered to pH 7.2. […]

[6] = intravenous administration of psilocybin; US2022370413A1; cited from earlier work
[7] = taken by mouth; cited from earlier work

SMILES: COc1cc(CCN)cc(OC)c1OC [mescaline]
- 5-HT2A receptor agonism (5-HT2A receptor): 5-HT2A receptor agonists

SMILES: CN(C)CCc1c[nH]c2cccc(O)c12 [Psilocin]
- 5-HT2A receptor agonism (5-HT2A receptor): 5-HT2A receptor agonists
- stability in biological samples ([1]; blood or urine): unstable and is degraded fast by both non-enzymatic and enzymatic processes
- stability in ambient and aqueous environments ([1]; exposed to air and aqueous): poor stability due to photodegradation and oxidation
- peak loss over 14 days ([1]; psilocin sample protected from light, 14 days): 50%
- stability, visually graded, at 50 °C, exposed to air ([2]; 50 °C, exposed to air, all samples contain psilocin (5 mg/L) and 2.5 wt % carrier/additive): 0
- stability of psilocin, conclusion ([2]; conclusion in words): could be significantly improved by adding the right carriers
- effectiveness of carriers for stabilizing psilocin (ranking) ([2]; order of effectiveness, lowest first): pure psilocin<CMS carrier (DendroSol®)<oxalic acid<dendritic succinate (25%)<dendritic succinate (100%)=functionalized dendritic succinate=dendritic succinate deprotonized with NaOH
- stability, visually graded, at room temperature exposed to air ([2]; room temperature, exposed to air, all samples contain psilocin (5 mg/L) and 2.5 wt % carrier/additive): 0
- stability, visually graded, under Vacuum at 25 °C ([2]; under vacuum at 25 °C, all samples contain psilocin (5 mg/L) and 2.5 wt % carrier/additive): 3

SMILES: CNC1(c2ccccc2Cl)CCCCC1=O (stereo not shown) [ketamine]
- NMDAR antagonism / interaction [3]: antagonist of the N-methyl-D-aspartate receptor

SMILES: CN[C@]1(c2ccccc2Cl)CCCCC1=O [(S)-ketamine]
- NMDAR antagonism / interaction [3]: stronger

SMILES: CN[C@@]1(c2ccccc2Cl)CCCCC1=O [(R)-ketamine]
- antidepressant potency and duration, relative ([4]; (R)-ketamine relative to (S)-ketamine): more long-lasting; also recorded: greater potency and longer-lasting antidepressive effects

SMILES: CCN(CC)C(=O)[C@@H]1C=C2c3cccc4[nH]cc(c34)C[C@H]2N(C)C1 [LSD]
- 5-HT2A receptor agonism (5-HT2A receptor; listed as (+) lysergide): partial agonist with a high affinity to this receptor
- 5-HT2A receptor agonism (5-HT2A receptor; listed as lysergide): 5-HT2A receptor agonists
- effect of carrier on diffusion rate, water vs ethanol as solvent [5]: the effect was greater when water was used as solvent than with use of ethanol as solvent

SMILES: CN(C)CCc1c[nH]c2cccc(OP(=O)(O)O)c12 [psilocybin]
- variation of maximum plasma concentrations of psilocin between individuals [6]: can vary over three-fold between individuals

SMILES: CNC(C)Cc1ccc2c(c1)OCO2 (stereo not shown) [MDMA, 3,4-methylenedioxymethamphetamine]
- duration of effects [7]: 3 to 6 h
- onset of effects [7]: 30 to 45 min

SMILES: CNC1(c2ccccc2Cl)CCCCC1=O (racemic) [(R,S)-ketamine]
- NMDAR antagonism / interaction [3]: antagonist of the NMDAR
- effect in treatment-resistant PTSD ([4]; patients with treatment-resistant post-traumatic stress disorder): beneficial effects
- antidepressant effect ([4]; treatment-resistant MDD or BD, single or repeated intravenous infusions, 0.5 mg/kg): robust antidepressant and antisuicidal effects
